Source: paper PMC7211203 (European Journal of Drug Metabolism and Pharmacokinetics, 2020)
Marks after values point to notes of the source that are not given here.

Columns and labels:
[1] = Safety: adverse events in patients with advanced solid tumors; assay type: in vivo, human
CYP3A4 [2] = details: ref Eisai, data on file; cited from earlier work
[3] = cited from earlier work
[4] = phase 1 study; cited from earlier work
[5] = cited from earlier work; remark: listed apart in the source
CYP3A4 [6] = molecular target: CYP3A4 (Homo sapiens, UniProt P08684); details: cited from earlier work
Sequence of CYP3A4 (Homo sapiens, UniProt P08684) (P08684 whole entry): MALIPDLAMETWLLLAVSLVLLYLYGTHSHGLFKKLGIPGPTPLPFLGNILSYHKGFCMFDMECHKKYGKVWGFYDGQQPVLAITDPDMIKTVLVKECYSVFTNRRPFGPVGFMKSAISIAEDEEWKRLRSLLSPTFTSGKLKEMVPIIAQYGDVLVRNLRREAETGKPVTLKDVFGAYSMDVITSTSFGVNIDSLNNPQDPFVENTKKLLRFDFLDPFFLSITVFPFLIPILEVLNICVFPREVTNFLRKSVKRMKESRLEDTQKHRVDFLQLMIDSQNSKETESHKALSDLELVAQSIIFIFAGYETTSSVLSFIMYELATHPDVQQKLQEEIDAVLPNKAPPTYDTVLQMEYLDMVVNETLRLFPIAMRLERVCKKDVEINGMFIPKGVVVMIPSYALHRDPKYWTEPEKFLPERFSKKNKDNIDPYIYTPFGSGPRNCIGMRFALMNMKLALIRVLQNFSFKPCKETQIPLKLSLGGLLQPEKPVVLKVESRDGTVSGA

[7] = safety analysis set n = 30, treatment phase

## COc1cc2nccc(Oc3ccc(NC(=O)NC4CC4)c(Cl)c3)c2cc1C(N)=O [lenvatinib]
[1]; all treatment-related SAEs
  Grade of treatment-related SAEs: ≤ 3 grade
[1]; extension phase (Eisai, data on file)
  New AEs in the extension phase: No new AEs
[1]; grade 5 TEAE (intestinal obstruction), related to underlying colon cancer
  Patients who died during the treatment phase: One
[1]; lenvatinib 24 mg once daily, patients with advanced solid tumors
  Tolerability: generally well tolerated
[1]; safety analysis set n = 30
  Abdominal pain upper: SAEs: 1 (3.3) n (%)
  Abdominal pain: SAEs: 2 (6.7) n (%)
  Abdominal pain: TEAEs: 3 (10.0) n (%)
  Asthenia: SAEs: 1 (3.3) n (%)
  Asthenia: TEAEs: 3 (10.0) n (%)
  Asthenia: treatment-related AEs: 2 (6.7) n (%)
  Bradycardia: SAEs: 1 (3.3) n (%)
  Cardiac disorders: SAEs: 2 (6.7) n (%)
  Cerebral hemorrhage: SAEs: 1 (3.3) n (%)
  Cough: TEAEs: 2 (6.7) n (%)
  Diarrhea: TEAEs: 7 (23.3) n (%)
  Diarrhea: treatment-related AEs: 3 (10.0) n (%)
  Dysphonia: TEAEs: 2 (6.7) n (%)
  Dyspnea: SAEs: 1 (3.3) n (%)
  Dyspnea: TEAEs: 2 (6.7) n (%)
  Fatigue: TEAEs: 8 (26.7) n (%)
  Fatigue: treatment-related AEs: 5 (16.7) n (%)
  Gastrointestinal disorders: SAEs: 4 (13.3) n (%)
  Gastrointestinal disorders: TEAEs: 12 (40.0) n (%)
  Gastrointestinal disorders: treatment-related AEs: 6 (20.0) n (%)
  General disorders: SAEs: 1 (3.3) n (%)
  General disorders: TEAEs: 11 (36.7) n (%)
  General disorders: treatment-related AEs: 7 (23.3) n (%)
  Headache: TEAEs: 3 (10.0) n (%)
  Headache: treatment-related AEs: 2 (6.7) n (%)
  Hypertension: SAEs: 3 (10.0) n (%)
  Hypertension: TEAEs: 7 (23.3) n (%)
  Hypertension: treatment-related AEs: 6 (20.0) n (%)
  Nausea: TEAEs: 4 (13.3) n (%)
  Nausea: treatment-related AEs: 2 (6.7) n (%)
  Nervous system disorders: SAEs: 1 (3.3) n (%)
  Nervous system disorders: TEAEs: 5 (16.7) n (%)
  Nervous system disorders: treatment-related AEs: 2 (6.7) n (%)
  Patient deaths from TEAEs: SAEs: 1 (3.33) n (%)
  Pyrexia: SAEs: 1 (3.3) n (%)
  Rectal hemorrhage: SAEs: 1 (3.3) n (%)
  Respiratory, thoracic, and mediastinal disorders: SAEs: 1 (3.3) n (%)
  Respiratory, thoracic, and mediastinal disorders: TEAEs: 8 (26.7) n (%)
  Stress cardiomyopathy: SAEs: 1 (3.3) n (%)
  Vascular disorders: SAEs: 3 (10.0) n (%)
  Vascular disorders: TEAEs: 7 (23.3) n (%)
  Vascular disorders: treatment-related AEs: 6 (20.0) n (%)
  Vomiting: TEAEs: 2 (6.7) n (%)
  Vomiting: treatment-related AEs: 2 (6.7) n (%)
[1]; [7]
  Patients with any TEAEs: SAEs: 10 (33.3) n (%)
  Patients with any TEAEs: TEAEs: 26 (86.7) n (%)
  Patients with any TEAEs: treatment-related AEs: 17 (56.7) n (%)
[1]; safety analysis set n = 30, this SAE resulted in patient death
  Intestinal obstruction: SAEs: 1 (3.3)^c n (%)
[1]; treatment phase, n = 30
  Patients who discontinued treatment due to a TEAE: 6.7%
  Patients with SAEs considered treatment related: Four
  Patients with TEAEs leading to lenvatinib dose modification: 40%
  Patients with at least 1 TEAE: 86.7%
  Patients with dose reduction: 13.3%
  Patients with lenvatinib treatment interruption: 26.7%
  SAE abdominal pain, patients: 6.7%
  SAE hypertension, patients: 10%
  TEAE diarrhea, patients: 23.3%
  TEAE fatigue, patients: 26.7%
  TEAE hypertension, patients: 23.3%
  Treatment-related TEAE diarrhea, patients: 10.0%
  Treatment-related TEAE fatigue, patients: 16.7%
  Treatment-related TEAE hypertension, patients: 20.0%
CYP3A4 [2]
  Action on CYP3A4: weak inducer and time-dependent inhibitor of CYP3A4
[3]
  Interaction with ketoconazole (inhibitor of CYP3A4): not clinically significant
[4]
  Pharmacokinetic drug–drug interactions in combination with everolimus: no significant pharmacokinetic drug–drug interactions
[5]; after dosing
  tmax: 1 to 4 h
[5]
  half-life: 28 h
CYP3A4 [6]
  Effect on midazolam metabolism in physiologically based pharmacokinetic model: negligible effects
